Patent US9999616B2 (ZENITH EPIGENETICS LTD., priority 2013, dated 2018)

Experiments:
[1] = tested on: c-myc in Human AML MV4-11 cells; experiment: Inhibition of cMYC expression (mRNA, real-time PCR) in MV4-11 cells; assay type: cell-based; conditions: 3 h treatment, cMYC mRNA by real-time PCR
How it was run: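 MV4-11 cells in IMDM with 10% FBS were treated with increasing compound concentrations (DMSO 0.1%) for 3 h at 37 °C, in triplicate. Isolated mRNA was quantified by one-step TaqMan RT-qPCR, cMYC Ct normalized to cyclophilin, and fold expression given relative to DMSO control.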

[2] = tested on: Human AML MV-4-11 cells; experiment: Inhibition of cell proliferation in MV4-11 cells (CellTiter Aqueous One); assay type: cell-based; conditions: for IC50: MV4-11, 72 h
How it was run: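 MV4-11 cells, 5×10^4 per well in IMDM with 10% FBS, were exposed to increasing compound concentrations or 0.1% DMSO for 72 h at 37 °C in triplicate. Viability was read by MTS (CellTiter Aqueous One) absorbance at 490 nm after 3-4 h. IC50 was derived from background-corrected signal relative to DMSO.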

[3] = tested on: hIL-6 mRNA; experiment: Inhibition of hIL-6 mRNA transcription in LPS-stimulated U937 macrophages; assay type: cell-based, Human; conditions: Homo sapiens, U-937, PMA-differentiated U937 cells, 1 h pretreatment, LPS 3 h, read-out: IL-6 activity
How it was run: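 PMA-differentiated U937 macrophages (60 ng/mL PMA, 3 days) pretreated 1 h with compound in 0.1% DMSO, then stimulated with 1 ug/mL E. coli LPS for 3 h at 37° C. IL-6 mRNA quantified by one-step TaqMan qRT-PCR, normalized to cyclophilin; fold expression relative to control, triplicate wells.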

[4] = tested on: hIL-17 mRNA; experiment: Inhibition of hIL-17 mRNA transcription in OKT3-stimulated peripheral blood mononuclear cells; assay type: cell-based; conditions: human PBMC, OKT3 stimulation 6 h, read-out: IL-17 Activity
Procedure: Human peripheral blood mononuclear cells were plated (2.0×10^5 cells per well) in a 96-well plate in 45 μL OpTimizer T Cell expansion media (Life Technologies) containing 20 ng/ml IL-2 and penicillin/streptomycin. The cells were treated with increasing concentrations of the test compound or DMSO (0.1%), and incubated at 37° C., 5% CO2 for 1 h before addition of 10× stock OKT3 antibody at 10 ug/ml in media. Triplicate wells were used for each concentration. Cells were incubated at 37° C., 5% CO2 for 6 h before the cells were harvested. At time of harvest, cells were pelleted by centrifugation at 800 rpm for 5 min. Cells were harvested using the mRNA Catcher PLUS kit according to manufacturer's instructions. The eluted mRNA was then used in a one-step quantitative real-time PCR reaction, using components of the RNA UltraSense™ One-Step Kit (Life Technologies) together with Applied Biosystems TaqMan® primer-probes for hIL-17 and Cyclophilin. Real-time PCR plates were run on a ViiA™7 real time PCR machine (Applied Biosystems), data was analyzed, normalizing the Ct values for hIL-17 to an internal control, prior to determining the fold induction of each unknown sample, relative to the control.

[5] = target: Brd4 bromodomain 1 (BRD4(1)) (Homo sapiens, UniProt O60885); experiment: Inhibition of tetra-acetylated histone H4 binding to Brd4 bromodomain 1, measured by FRET (HTRF); parameters: made in house; host or cells: E. coli BL21(DE3); conditions: 2 h at room temperature
How it was run: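 N-terminally His-tagged bromodomain (200 nM), expressed in E. coli and purified by Ni affinity and size exclusion, was incubated with biotinylated tetra-acetylated H4 peptide (25-50 nM), Eu-cryptate streptavidin and XL665 anti-His in HEPES pH 7.4 buffer with 0.2% DMSO. Reactions ran 2 h at room temperature. IC50 came from the 665/620 nm fluorescence decrease.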

Row | IC50 [1] [µM] | IC50 [2] [µM] | IC50 [3] [µM] | IC50 [4] [µM] | IC50 [5] [µM] | Structure (SMILES) | Cell Proliferation activity ([2]; 72 h)
1 | 0.3 to 3 | 0.3 to 3 | 0.3 to 3 | 0.3 to 3 | ≤ 0.3 | Cc1noc(C)c1-c1cc2c(c(-c3c(C)noc3C)c1)OCC(=O)N2 [Example Compound 11, 6,8-bis(3,5-dimethylisoxazol-4-yl)-2H-benzo[b][1,4]oxazin-3(4H)-one] | 
2 | 0.3 to 3 | 0.3 to 3 | 0.3 to 3 | 0.3 to 3 | ≤ 0.3 | Cc1noc(C)c1-c1cc2c(c(-c3c(C)noc3C)c1)OCCN2 [Example Compound 13, 6,8-bis(3,5-dimethylisoxazol-4-yl)-3,4-dihydro-2H-benzo[b][1,4]oxazine] | 
3 | 0.3 to 3 | 0.3 to 3 | 0.3 to 3 | ≤ 0.3 | 0.3 to 3 | Cc1noc(C)c1-c1cc(-c2ccccc2C(F)(F)F)c2nc[nH]c2c1 [Example Compound 19, 3,5-dimethyl-4-(4-(2-(trifluoromethyl)phenyl)-1H-benzo[d]imidazol-6-yl)isoxazole] | 
4 | 0.3 to 3 | 0.3 to 3 |  | 0.3 to 3 | ≤ 0.3 | Cc1noc(C)c1-c1cc(-c2c(C)noc2C)c2nc(C(C)C)[nH]c2c1 [Example Compound 45, 4,4′-(2-isopropyl-1H-benzo[d]imidazole-4,6-diyl)bis(3,5-dimethylisoxazole)] | 
5 |  | ≤ 0.3 | ≤ 0.3 | 0.3 to 3 | ≤ 0.3 | Cc1nc2c(-c3cc(C#N)ccc3C)cc(-c3c(C)noc3C)cc2[nH]1 [Example Compound 58, 3-(6-(3,5-dimethyl-isoxazol-4-yl)-2-methyl-1H-benzo[d]imidazol-4-yl)-4-methyl-benzonitrile] | 
6 |  | ≤ 0.3 | ≤ 0.3 | 0.3 to 3 | ≤ 0.3 | Cc1nc2c(-c3cccnc3C(F)(F)F)cc(-c3c(C)noc3C)cc2[nH]1 [Example Compound 59, 3,5-dimethyl-4-(2-methyl-4-(2-(trifluoro-methyl)pyridin-3-yl)-1H-benzo[d]imidazol-6-yl)isoxazole] | 
7 | 0.3 to 3 | 0.3 to 3 | 0.3 to 3 |  | ≤ 0.3 | Cc1noc(C)c1-c1cc(-c2cccc(C(N)=O)c2C)c2nc(N3CCN(C)CC3)[nH]c2c1 [Example Compound 206, 3-(6-(3,5-dimethyl-isoxazol-4-yl)-2-(4-methyl-piperazin-1-yl)-1H-benzo[d]imidazol-4-yl)-2-methyl benzamide] | 
8 | 0.3 to 3 | 0.3 to 3 | 0.3 to 3 |  | ≤ 0.3 | Cc1noc(C)c1-c1cc(-c2cccc(C(N)=O)c2C)c2nc(NC3CCOCC3)[nH]c2c1 [Example Compound 207, 3-(6-(3,5-dimethyl-isoxazol-4-yl)-2-((tetrahydro-2H-pyran-4-yl)amino)-1H-benzo[d]imidazol-4-yl)-2-methyl benzamide] | 
9 | 0.3 to 3 | ≤ 0.3 | 0.3 to 3 |  | ≤ 0.3 | Cc1noc(C)c1-c1cc(-c2cccc(C#N)c2C)c2nc(N3CCC(N)CC3)[nH]c2c1 [Example Compound 209, 3-(2-(4-amino-piperidin-1-yl)-6-(3,5-dimethyl-isoxazol-4-yl)-1H-benzo[d]imidazol-4-yl)-2-methyl benzonitrile] | 
10 | ≤ 0.3 | ≤ 0.3 | 0.3 to 3 |  | ≤ 0.3 | CNc1nc2c(-c3cnccc3C)cc(-c3c(C)noc3C)cc2[nH]1 [Example Compound 214, 6-(3,5-dimethyl-isoxazol-4-yl)-N-methyl-4-(4-methylpyridin-3-yl)-1H-benzo[d] imidazol-2-amine] | 
11 | ≤ 0.3 | 0.3 to 3 | ≤ 0.3 |  | ≤ 0.3 | Cc1noc(C)c1-c1cc(-c2c(C)noc2C)c2nc(NC3CCOCC3)[nH]c2c1 [Example Compound 229, 4,6-bis(3,5-dimethyl-isoxazol-4-yl)-N-(tetrahydro-2H-pyran-4-yl)-1H-benzo[d] imidazol-2-amine] | 
12 | 0.3 to 3 |  | 3 to 30 |  | 0.3 to 3 | Cc1noc(C)c1-c1cc(-c2ccnn2C)cc2[nH]cnc12 [Example Compound 230, 3,5-dimethyl-4-(6-(1-methyl-1H-pyrazol-5-yl)-1H-benzo[d]imidazol-4-yl)isoxazole] | Not active
13 | ≤ 0.3 | ≤ 0.3 | ≤ 0.3 |  | ≤ 0.3 | Cc1noc(C)c1-c1cc(-c2c(C)noc2C)c2nc(N3CCN(C)CC3)[nH]c2c1 [Example Compound 231, 4,4′-(2-(4-methyl-piperazin-1-yl)-1H-benzo[d]imidazole-4,6-diyl) bis(3,5-dimethylisoxazole)] | 

The next lines start with the compound.

Row | Structure (SMILES) | IC50 [1] [µM] | IC50 [2] [µM] | IC50 [3] [µM] | IC50 [4] [µM] | IC50 [5] [µM] | Cell Proliferation activity ([2]; 72 h)
14 | Cc1noc(C)c1-c1cc(Nc2ccccc2)c2nc[nH]c2c1 [Example Compound 7, 6-(3,5-dimethylisoxazol-4-yl)-N-phenyl-1H-benzo[d] imidazol-4-amine] | 0.3 to 3 | 0.3 to 3 | ≤ 0.3 | 0.3 to 3 | ≤ 0.3 | 
15 | COc1ncccc1-c1cc(-c2c(C)noc2C)cc2[nH]cnc12 [Example Compound 48, 4-(4-(2-methoxy-pyridin-3-yl)-1H-benzo[d]imidazol-6-yl)-3,5-dimethyl isoxazole] | 0.3 to 3 | 0.3 to 3 |  | 0.3 to 3 | ≤ 0.3 | 
16 | Cc1noc(C)c1-c1cc(-c2cccc(C#N)c2C)c2nc(NC3CCOCC3)[nH]c2c1 [Example Compound 204, 3-(6-(3,5-dimethyl-isoxazol-4-yl)-2-((tetrahydro-2H-pyran-4-yl)amino)-1H-benzo[d]imidazol-4-yl)-2-methyl benzonitrile] | ≤ 0.3 | ≤ 0.3 | ≤ 0.3 |  | ≤ 0.3 | 
17 | Cc1ccc(C#N)cc1-c1cc(-c2c(C)noc2C)cc2[nH]c(NC3CCN(C)CC3)nc12 [Example Compound 205, 3-(6-(3,5-dimethyl-isoxazol-4-yl)-2-((1-methyl-piperidin-4-yl)amino)-1H-benzo[d]imidazol-4-yl)-4-methyl benzonitrile] | ≤ 0.3 | 0.3 to 3 | 0.3 to 3 |  | ≤ 0.3 | 
18 | Cc1ccc(C#N)cc1-c1cc(-c2c(C)noc2C)cc2[nH]c(NCc3ccccc3)nc12 [Example Compound 210, 3-(2-(benzylamino)-6-(3,5-dimethyl-isoxazol-4-yl)-1H-benzo[d]imidazol-4-yl)-4-methyl benzonitrile] | 0.3 to 3 | ≤ 0.3 | 0.3 to 3 |  | ≤ 0.3 | 
19 | Cc1noc(C)c1-c1cc(-c2cc(N)c(=O)n(C)c2)c2nc[nH]c2c1 [Example Compound 225, 3-amino-5-(6-(3,5-dimethylisoxazol-4-yl)-1H-benzo[d]imidazol-4-yl)-1-methyl-pyridin-2(1H)-one] | 0.3 to 3 | 3 to 30 | 3 to 30 |  | 0.3 to 3 | 
20 | Cc1noc(C)c1-c1cc(-c2c(C)noc2C)c2nc(N3CCOCC3)[nH]c2c1 [Example Compound 226, 4-(4,6-bis(3,5-dimethylisoxazol-4-yl)-1H-benzo[d]imidazol-2-yl)morpholine] | ≤ 0.3 | ≤ 0.3 | ≤ 0.3 |  | ≤ 0.3 | 
21 | COc1c(-c2c(C)noc2C)cc2[nH]c(C)nc2c1-c1c(C)noc1C [Example Compound 227, 4,4′-(5-methoxy-2-methyl-1H-benzo[d]imidazole-4,6-diyl)bis(3,5-dimethylisoxazole)] | 0.3 to 3 | 3 to 30 | 0.3 to 3 |  | 0.3 to 3 | 
22 | Cc1noc(C)c1-c1cc(-c2c(C)noc2C)c2nc(C3CCOCC3)[nH]c2c1 [Example Compound 228, 4,4′-(2-(tetrahydro-2H-pyran-4-yl)-1H-benzo[d]imidazole-4,6-dyl)bis(3,5-dimethylisoxazole)] | 0.3 to 3 | 0.3 to 3 | 0.3 to 3 |  | ≤ 0.3 | 
